Laboratory results as given in paper PMC11418212, “Characterization of four structurally diverse inhibitors of SUR2-containing KATP channels” (Channels, 2024).

Assays:
Experiment in all cases: Kir family selectivity thallium flux assay
Format in all cases: cell-based
[1] = target: T1, Kir1.1 (Homo sapiens, UniProt P48048)
T1 construct: expressed in transfected cells
T1 sequence (P48048 1-391): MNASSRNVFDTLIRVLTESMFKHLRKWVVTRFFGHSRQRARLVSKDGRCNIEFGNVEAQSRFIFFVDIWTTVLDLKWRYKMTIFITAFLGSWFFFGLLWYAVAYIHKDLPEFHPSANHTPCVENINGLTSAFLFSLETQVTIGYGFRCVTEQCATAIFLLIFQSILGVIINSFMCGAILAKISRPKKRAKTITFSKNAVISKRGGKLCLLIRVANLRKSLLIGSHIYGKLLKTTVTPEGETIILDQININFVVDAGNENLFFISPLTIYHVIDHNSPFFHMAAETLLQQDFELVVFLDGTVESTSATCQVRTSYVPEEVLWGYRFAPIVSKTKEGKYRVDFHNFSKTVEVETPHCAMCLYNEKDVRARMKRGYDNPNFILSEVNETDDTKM
Procedure: (§1) Thallium flux assays were conducted using the established methods. Stably transfected T-REx-HEK-293 cells expressing Kir6.2/SUR1 or Kir6.1/SUR2B were cultured overnight in polyamine-coated plates (black-walled, clear-bottomed; BD, Bedford, MA) at a density of 20,000 cells in 20 µl per well of cell culture media. The expression of Kir6.2/SUR1 or Kir6.1/SUR2B channels was induced by treating cells with 1 µg/ml tetracycline overnight. The following day, cells were rinsed with an assay buffer (Hanks’ Balanced Salt Solution supplied with 20 mM HEPES), loaded with the thallium-sensor dye Brilliant Thallos-AM AM (Ion Bioscience, San Marcos, TX) for 1 h, and then washed again with assay buffer to remove unincorporated dye. The cell plate was subsequently placed in a Panoptic Kinetic Imaging Plate Reader (Wavefront Bioscience, Franklin, TN) and imaged at a frequency of 1 Hz using 482/35 nm (excitation) and 536/40 nm (emission) filter sets. Kir6.1/SUR2B channels were activated with 10 µM pinacidil, whereas Kir6.1/SUR1 was activated with 30 µM VU0071063 [34]. To activate KATP channels independent of activators with ATP-depletion method, cells were treated with a cocktail of metabolic inhibitors (2.5 mM sodium cyanide and 20 mM 2-deoxy glucose) for 25 min before imagine. Control and test compounds diluted freshly from DMSO stocks into assay buffer were added to wells for four minutes before adding 0.5 mM chloride-free thallium stimulus buffer (Ion Bioscience) to initiate thallium flux through the expressed KATP channels. Thallium flux was recorded from all 384-wells for 2 min before terminating the experiment. […] Selectivity assays against other Kir channels were performed as described previously.
(§2) To begin elucidating the binding site location of VU0212387, VU0543336, VU0605768, and VU0544086, we evaluated the activity of the inhibitors against KATP channels composed of different Kir and SUR subunit combinations expressed in HEK293 cells. Specifically, the compounds were tested against Kir6.1/SUR1, Kir6.2/SUR1, Kir6.1/SUR2A, Kir6.2/SUR2A, Kir6.1/SUR2B, and Kir6.2/SUR2B at a dose of 3 µM. […] We expanded the selectivity analysis to include 10 other members of the Kir channel family.

[2] = target: T2, Kir2.3 (Homo sapiens, UniProt P48050)
T2 construct: expressed in transfected cells
T2 sequence (P48050 1-445): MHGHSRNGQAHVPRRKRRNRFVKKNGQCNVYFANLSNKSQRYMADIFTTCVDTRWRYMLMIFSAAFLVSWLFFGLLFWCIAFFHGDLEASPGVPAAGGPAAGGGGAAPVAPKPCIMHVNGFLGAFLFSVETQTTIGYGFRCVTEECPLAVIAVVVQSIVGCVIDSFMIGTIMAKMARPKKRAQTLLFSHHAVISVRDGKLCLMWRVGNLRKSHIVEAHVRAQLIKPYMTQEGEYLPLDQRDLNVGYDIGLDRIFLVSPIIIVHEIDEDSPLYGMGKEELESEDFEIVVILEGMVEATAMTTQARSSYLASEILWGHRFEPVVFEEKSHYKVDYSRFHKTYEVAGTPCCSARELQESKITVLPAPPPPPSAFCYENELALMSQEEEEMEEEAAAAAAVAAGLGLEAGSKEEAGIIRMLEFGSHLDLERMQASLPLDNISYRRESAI
Procedure: as §1, §2

[3] = target: T3, Kir2.2 (Homo sapiens, UniProt Q14500)
T3 construct: expressed in transfected cells
T3 sequence (Q14500 1-433): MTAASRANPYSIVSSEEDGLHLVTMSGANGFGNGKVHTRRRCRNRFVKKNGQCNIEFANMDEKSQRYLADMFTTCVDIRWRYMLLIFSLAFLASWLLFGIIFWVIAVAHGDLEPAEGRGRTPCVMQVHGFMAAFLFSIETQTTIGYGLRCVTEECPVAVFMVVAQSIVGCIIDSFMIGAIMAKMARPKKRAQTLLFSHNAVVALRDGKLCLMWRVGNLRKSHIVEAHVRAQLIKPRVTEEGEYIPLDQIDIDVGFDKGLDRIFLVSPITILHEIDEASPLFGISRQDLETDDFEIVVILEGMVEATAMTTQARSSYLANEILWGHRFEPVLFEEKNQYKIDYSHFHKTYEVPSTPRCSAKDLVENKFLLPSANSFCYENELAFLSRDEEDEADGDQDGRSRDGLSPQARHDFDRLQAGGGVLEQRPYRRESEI
Procedure: as §1, §2

[4] = target: T4, Kir4.1 (Homo sapiens, UniProt P78508)
T4 construct: expressed in transfected cells
T4 sequence (P78508 1-379): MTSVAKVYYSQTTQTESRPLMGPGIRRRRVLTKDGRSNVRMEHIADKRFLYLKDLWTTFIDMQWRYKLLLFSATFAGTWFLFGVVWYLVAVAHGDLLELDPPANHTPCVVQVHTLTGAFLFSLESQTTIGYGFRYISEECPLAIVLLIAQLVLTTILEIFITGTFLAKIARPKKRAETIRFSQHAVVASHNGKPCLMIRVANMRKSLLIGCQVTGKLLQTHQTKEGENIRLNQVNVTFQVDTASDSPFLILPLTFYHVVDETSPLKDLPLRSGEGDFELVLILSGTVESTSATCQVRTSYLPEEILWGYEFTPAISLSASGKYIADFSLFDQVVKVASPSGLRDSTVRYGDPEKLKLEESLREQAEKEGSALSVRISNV
Procedure: as §1, §2

Measured: IC50

O=C1c2oc3ccccc3c(=O)c2C(c2cccc(Br)c2)N1CCO (stereo not shown) [VU0605768, 1-(3-bromophenyl)-2-(2-hydroxyethyl)-1,2-dihydrochromeno[2,3-c]pyrrole-3,9-dione]
> 30 µM: all assays above

O=C(NCc1cc(-c2ccncc2)n(C2CCCC2)n1)Nc1cccs1 [VU0544086, 1-((1-cyclopentyl-5-(pyridin-4-yl)-1 H-pyrazol-3-yl)methyl)-3-(thiophen-2-yl)urea]
> 30 µM: all assays above

c1ccc2[nH]c(CSc3ncnc4c3oc3ccccc34)nc2c1 [VU0212387, 4-(((1 H-benzo[d]imidazol-2-yl)methyl)thio)benzofuro[3,2-d]pyrimidine]
> 30 µM: all assays above

O=C(NCC(O)(c1ccccc1)C(F)(F)F)c1ccc(OC(F)(F)F)cc1 (stereo not shown) [VU0543336, N-(3,3,3-trifluoro-2-hydroxy-2-phenylpropyl)-4-(trifluoromethoxy)benzamide]
> 30 µM: all assays above
